In patent US20100221821A1, “METHODS AND COMPOSITIONS RELATED TO RIBOSWITCHES THAT CONTROL ALTERNATIVE SPLICING AND RNA PROCESSING” (YALE UNIVERSITY, priority 2007, published 2010):
Where two headings read alike, the source gives them in different places.

Columns and labels:
[1] = test system: altered TPP aptamer in THIC-III RNA from A. thaliana; assay: In-line probing of TPP binding by the spliced (altered) TPP aptamer of THIC type III RNA; parameters: species or system Arabidopsis thaliana
Description: (B) In-line probing analysis of TPP binding by the spliced aptamer depicted in (A). Lanes include RNAs loaded after no reaction (NR), after partial digestion with RNase T1 (T1), or after partial digestion with alkali (^−OH). Sites 1 and 2 were quantified to establish the KD as shown in (C). (C) Plot indicating the normalized fraction of RNA spontaneously cleaved versus the concentration of TPP for sites 1 and 2 in (B).
In-line probing (Soukup and Breaker, 1999) was used to determine whether this altered aptamer retains TPP binding activity.
In-line probing assays were conducted essentially as described previously (Sudarsan et al., 2003; Winkler et al., 2002). […] For in-line probing analysis, the labeled RNA was incubated at room temperature for 40 hours in 50 mM Tris-HCl (pH 8.3 at 23° C.), 20 mM MgCl2, and 100 mM KCl in the absence or presence of varying concentrations of TPP. Cleavage products were resolved by denaturing 10% PAGE, visualized by PhosphorImager (GE Healthcare), and quantitated using ImageQuant software. The apparent KD value, reflecting the concentration of TPP needed to half-maximally modulate RNA structure, was determined by plotting the normalized fraction of RNA cleaved versus the logarithm of TPP concentration.

[2] = test system: TPP aptamer with 5' splice site region of THIC mRNA from A. thaliana; assay: In-line probing of TPP aptamer with 5' flank (nts -14-261 relative to 5' splice site); format: binding, Arabidopsis thaliana; conditions: 10 μM TPP
Description: (A) TPP causes changes in RNA structure near to the 5′ splice site, which is important for the formation of THIC type III RNA. For in-line probing, a 5′ ^32P-labelled RNA starting 14 nts upstream of the 5′ splice site (+1) and expanding to the 3′ end of the TPP aptamer (nucleotides-14-261) from A. thaliana was incubated in the absence (−) or presence (+) of 10 μM TPP and the resulting spontaneous cleavage products were separated by polyacrylamide gel electrophoresis. Markers are RNAs partially digested with RNase T1 (T1) or alkali (^−OH). The graph depicts the relative band intensities in the lanes indicated. (B) Base-pairing potential between the 5′ splice site region and the P4-P5 stems of the TPP aptamer (SEQ ID NOs:34-47; complementary nucleotides are shaded). Stretches of complementary nucleotides are also present in all other plant THIC mRNA sequences available. […]
In-line probing assays were conducted essentially as described previously (Sudarsan et al., 2003; Winkler et al., 2002). […] Cleavage products were resolved by denaturing 10% PAGE, visualized by PhosphorImager (GE Healthcare), and quantitated using ImageQuant software. The apparent KD value, reflecting the concentration of TPP needed to half-maximally modulate RNA structure, was determined by plotting the normalized fraction of RNA cleaved versus the logarithm of TPP concentration.

[3] = molecular target: full-length TPP aptamer from A. thaliana; conditions: read-out: apparent dissociation constant (KD) of full-length aptamer for TPP; cited from earlier work
[4] = test system: THIC transcripts
Description: (§1) (A) qRT-PCR analysis was conducted on THIC transcripts from A. thaliana seedlings grown for 14 days on medium supplemented with 0, 0.1, and 1 mM thiamin. Total THIC transcripts and separately types I, II and III RNAs were detected using different primer combinations. cDNAs were generated using a polyT primer or random hexamers for detection of type I RNAs. Expression was normalized for each primer combination to the value measured using medium with no thiamin supplementation (open bars). Values are averages from three independent experiments and error bars represent standard deviation. (B) Northern blot analysis of THIC transcripts from the same samples described in (A). 20 μg total RNA was loaded per lane and analyzed using probes binding to the coding region of THIC, the extended 3′ UTR of types I and III RNAs, or the control transcript EIF4A1. […] (C) qRT-PCR analysis of the time-dependent effects of thiamin treatment on THIC transcripts from A. thaliana. Seedlings were grown for 14 days on thiamin free medium and subsequently sprayed with 50 μM thiamin and 0.25 mg ml^−1 Tween 80. Control seedlings were treated with a solution containing only Tween 80. Samples were collected after 4 h and 26 h and subjected to qRT-PCR analysis. Amounts of THIC transcripts were analyzed from cDNAs generated with polyT primer and normalized to the values of the control samples without application of thiamin (open bars). Values are averages from three independent experiments and error bars represent standard deviation. (D) Relative changes of the levels of THIC transcript types in wild-type (WT) and thiamin pyrophosphokinase double knockout (TPK-KO) A. thaliana plants. Seedlings were grown for 12 days on thiamin free medium and amounts of THIC transcript types were analyzed by qRT-PCR. Data were normalized to the values for the WT samples and reflect averages from three replicates, with error bars representing standard deviation.
(A) qRT-PCR analysis of total THIC transcripts from plants incubated for 48 h under continuous light. Plants were grown for 11 days in light/dark cycles (16/8 h) on medium without thiamin or medium supplemented with 100 μM thiamin. On the morning of the 12th day, plants were transferred to continuous light and samples were taken every 3 hours. Expression was normalized to the value of the sample at time point 0 from plants grown on thiamin free medium. Error bars represent standard deviation of triplicate qRT-PCR analyses. […] (B) qRT-PCR analysis of THIC type III RNAs. Plant material and data normalization are as described for (A).
The amount of THIC transcripts was established by using quantitative RT-PCR (qRT-PCR) to address whether transcript levels respond to increased thiamin concentrations. A. thaliana seedlings were supplemented with various amounts of thiamin and the different THIC transcript types were detected using specific primer combinations. The primer combination amplifying THIC-II also can bind to a subset of THIC-I RNAs that have undergone splicing of the first 3′ UTR intron.
Arabidopsis thaliana ecotype Columbia-0 plants were grown with soil at 23° C. in a growth chamber under 16/8 h (light/dark) photoperiod with 60% humidity unless otherwise stated. For seedling experiments, plants were grown on basal MS medium (Murashige and Skoog, 1962) supplemented with 2% sucrose and varying concentrations of thiamin and under continuous light unless otherwise specified. N. benthamiana plants for leaf infiltration assays were grown on soil for 3 to 5 weeks under continuous light.

[5] = test system: THIC transcripts; conditions: seedlings on thiamin-supplemented medium
Description: as §1

[6] = test system: THIC TPP riboswitch (3' region of AtTHIC fused to EGFP)
Description: (A) Leaves from stably transformed A. thaliana lines expressing a reporter fusion of the complete 3′ region of AtTHIC fused to the 3′ end of EGFP were abscised and incubated with the petioles in water or in water supplemented with 0.02% thiamin. EGFP fluorescence was assessed at 0 h, 48 h, and 72 h after onset of treatment. One representative set of data from three repeats is shown, and the numbers identify different leaves from one transgenic line. (B) Quantitation of EGFP fluorescence of leaves depicted in (A) at three time points. The data represent average fluorescence intensity and standard deviation for each leaf. The plot also depicts average background fluorescence of WT leaves. (C) qRT-PCR analysis of total EGFP and THIC transcripts from leaves incubated for 72 h in water or 0.02% thiamin. Transcript amounts were standardized to an internal reference transcript and normalized to transcript abundance in water treated samples. Values are averages from four independent experiments using different transgenic lines and error bars represent standard deviation. (D,E) RT-PCR analysis of different 3′ UTRs of EGFP and THIC transcript types from A. thaliana reporter transformants grown in the absence of exogenous thiamin. For cDNA generation, a polyT primer, random hexamers or two different gene specific primers (binding either 221 or 882 nts downstream of the end of the aptamer) were used as indicated. The forward primers were specific for the end of the last exon of the coding region of EGFP (left) or THIC (right), whereas the reverse primer was either a polyT primer (D) or homologous to a region 221 nts downstream of the end of the aptamer (E). RT-PCR products were separated and visualized as described in the description of FIG. 2. M designates the marker lanes containing DNAs of 100 base-pair increments. No RT indicates a control reaction using the RNA without reverse transcription as a template source. I-1 and I-2 represent type I RNAs with the upstream intron following the stop codon unspliced or spliced, respectively.
(A) Secondary structure model and sequence of the WT TPP aptamer from A. thaliana genomic sequence and located in the 3′ region of THIC that was fused to EGFP (SEQ ID NOs: 32 and 33). […] (B) Quantitation of EGFP fluorescence in leaves from A. thaliana transformants expressing reporter constructs containing the WT aptamer sequence or mutated versions M2, M3 and M4. Leaves were excised and incubated with their petioles in water or 0.02% thiamin for 72 h before fluorescence analysis. Values are averages from at least three independent experiments using different transgenic lines. Error bars represent standard deviation. (C) qRT-PCR analyses of EGFP and THIC transcript amounts in A. thaliana transformants described in (B). Transcript amounts (standardized using a reference transcript) were normalized to transcript abundance in water treated samples. Values are averages from two to four independent experiments using different transgenic lines. Error bars represent standard deviation. (D,E) RT-PCR analyses of 3′ UTRs of EGFP and THIC transcripts from A. thaliana transformants with mutations M2 or M3. RT-PCR analyses were performed as described in the description of FIGS. 5D and 5E. Forward primers were homologous to the end of the last exon of the coding region of EGFP or THIC, and the reverse primer was a polyT primer (D) or complementary to a region 221 nts downstream of the end of the aptamer (E). Kbp designates kilobase pairs.

[7] = test system: THIC promoter from A. thaliana; conditions: 100 μM thiamin, 9 day old seedlings
Description: A construct consisting of a 1595 by fragment of the THIC promoter from A. thaliana was fused to the reporter gene β-glucuronidase (GUS) and transformed into A. thaliana. […] Data are mean values from three different transgenic lines and from three independent experiments. Error bars represent standard deviation.

[8] = 26 h after spraying with 50 μM thiamin
[9] = four hours after spraying seedlings with 50 μM thiamin

Cc1ncc(C[n+]2csc(CCO[P@](=O)(O)OP(=O)(O)O)c2C)c(N)n1 [TPP, thiamine pyrophosphate]
loss in ligand-binding affinity versus full-length aptamer ([1]; altered aptamer vs full-length aptamer): more than three orders of magnitude | Kd ([1]; in-line probing, spliced aptamer of THIC-III, read-out: apparent KD of the altered aptamer for TPP): ~60 µM | TPP binding by mutant M1 of the altered aptamer ([1]; mutation M1 in type III construct): completely abolish TPP binding | TPP binding by mutant M2 of the altered aptamer ([1]; mutation M2 in type III construct): completely abolish TPP binding | structural modulation of nucleotides near the 5' splice site [2]: increase in structural flexibility | Kd [3]: ~0.05 µM

Cc1ncc(C[n+]2csc(CCO)c2C)c(N)n1 [thiamin]
binding to the altered aptamer ([1]; data not shown): does not bind | THIC-II level [4, 8]: decreased even further | total THIC RNA level [4, 8]: decreased even further | increase in THIC-III ([4]; after spraying with 50 μM thiamin, early phase (4 h)): more pronounced in the early phase | THIC-II amount relative to absence of added thiamin [4, 9]: 50% | total THIC RNA amount relative to absence of added thiamin [4, 9]: 50% | THIC-I transcripts copy number ([4]; medium containing 1 mM thiamin): little or no change | THIC-II transcripts ([4]; medium containing 1 mM thiamin): equivalent reduction | THIC-III transcripts copy number ([4]; medium containing 1 mM thiamin): little or no change | circadian rhythm of THIC expression ([4]; medium supplemented with 100 μM thiamin, continuous light 48 h): not affected | total amount of THIC transcripts relative to seedlings grown without thiamin supplementation ([4]; seedlings grown on medium containing 1 mM thiamin, 14 days): approximately 20% | THIC-I RNA levels (Northern blot) [5]: remain relatively unchanged | THIC-III RNA levels (Northern blot) [5]: remain relatively unchanged | THIC-II levels (Northern blot) ([5]; same samples as FIG. 3A): decrease | amount of endogenous THIC transcripts relative to control levels ([6]; 0.02% thiamin, 72 h, qRT-PCR): approximately 20% | amount of EGFP transcripts relative to control levels ([6]; WT construct, 0.02% thiamin, 72 h, qRT-PCR): approximately 20% | EGFP fluorescence in leaves ([6]; WT construct, 0.02% thiamin, rosette stage leaves): decreased | responsiveness of reporter to thiamin application compared to WT construct ([6]; mutant aptamer M2, 0.02% thiamin 72 h): reduced | responsiveness of reporter to thiamin application compared to WT construct ([6]; mutant aptamer M3, 0.02% thiamin 72 h): complete loss | responsiveness of reporter to thiamin application compared to WT construct ([6]; mutant aptamer M4, 0.02% thiamin 72 h): complete loss | expression of reporter gene (GUS) driven by the THIC promoter [7]: not altered
